Laboratory results published in the supplement of paper PMC6411743.

Compound: Nc1ncnc2c1ncn2[C@@H]1O[C@H](COP(=O)(O)OP(=O)(O)OP(=O)(O)O)[C@@H](O)[C@H]1O [adenosine triphosphate]
Test: pEC50 of ATP-induced change in protein thermal stability (2D-TPP)
How it was run: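 Crude Jurkat lysate was exposed to five concentrations, vehicle among them, for 10 min at room temperature, then heated for 3 min at 12 temperatures between 42 and 63.9 °C and treated with NP40 and benzonase for 60 min at 4 °C. Soluble protein remaining after ultracentrifugation was measured by TMT LC-MS/MS, and fold changes relative to vehicle at each temperature were median-normalised. pEC50 values come from dose-response fits made per replicate across adjacent temperature pairs, with hits called under permutation-based false discovery rate control. Three independent experiments were run.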
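Note: lysate dosed with Na-ATP at 0 0.005 0.05 0.5 and 2 mM.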

CHD1 (effect direction: stabilized) (UniProt O14646)
pEC50: < 2.7

SNX1 (effect direction: stabilized) (UniProt Q13596)
pEC50: < 2.7

UniProt P52434 (effect direction: stabilized)
pEC50: < 2.7

UniProt Q8N4C8 (effect direction: stabilized)
pEC50: 3.74

RPS10 (effect direction: destabilized) (UniProt P46783)
pEC50: < 2.7

PRKCH (effect direction: stabilized) (UniProt P24723)
pEC50: 3.5

UniProt Q15149 (effect direction: stabilized)
pEC50: 2.72

XRCC6 (effect direction: stabilized) (UniProt P12956)
pEC50: < 2.7

RANGAP1 (effect direction: stabilized) (UniProt P46060)
pEC50: < 2.7

UniProt Q8TBX8 (effect direction: stabilized)
pEC50: 3.04

MRPS6 (effect direction: destabilized) (UniProt P82932)
pEC50: 3.58

CDK5 (effect direction: stabilized) (UniProt Q00535)
pEC50: 3.46

VTN (effect direction: destabilized) (UniProt P04004)
pEC50: 3.24

PLS1 (effect direction: stabilized) (UniProt Q14651)
pEC50: < 2.7

GTF3A (effect direction: stabilized) (UniProt Q92664)
pEC50: 3.03

UniProt P0DMV8 (effect direction: stabilized)
pEC50: 3.72

NUP133 (effect direction: stabilized) (UniProt Q8WUM0)
pEC50: 2.84

UniProt O75521 (effect direction: stabilized)
pEC50: < 2.7

SMARCA5 (effect direction: stabilized) (UniProt O60264)
pEC50: 4.03

CARS (effect direction: stabilized) (UniProt P49589)
Chain of UniProt P49589 (P49589 whole entry): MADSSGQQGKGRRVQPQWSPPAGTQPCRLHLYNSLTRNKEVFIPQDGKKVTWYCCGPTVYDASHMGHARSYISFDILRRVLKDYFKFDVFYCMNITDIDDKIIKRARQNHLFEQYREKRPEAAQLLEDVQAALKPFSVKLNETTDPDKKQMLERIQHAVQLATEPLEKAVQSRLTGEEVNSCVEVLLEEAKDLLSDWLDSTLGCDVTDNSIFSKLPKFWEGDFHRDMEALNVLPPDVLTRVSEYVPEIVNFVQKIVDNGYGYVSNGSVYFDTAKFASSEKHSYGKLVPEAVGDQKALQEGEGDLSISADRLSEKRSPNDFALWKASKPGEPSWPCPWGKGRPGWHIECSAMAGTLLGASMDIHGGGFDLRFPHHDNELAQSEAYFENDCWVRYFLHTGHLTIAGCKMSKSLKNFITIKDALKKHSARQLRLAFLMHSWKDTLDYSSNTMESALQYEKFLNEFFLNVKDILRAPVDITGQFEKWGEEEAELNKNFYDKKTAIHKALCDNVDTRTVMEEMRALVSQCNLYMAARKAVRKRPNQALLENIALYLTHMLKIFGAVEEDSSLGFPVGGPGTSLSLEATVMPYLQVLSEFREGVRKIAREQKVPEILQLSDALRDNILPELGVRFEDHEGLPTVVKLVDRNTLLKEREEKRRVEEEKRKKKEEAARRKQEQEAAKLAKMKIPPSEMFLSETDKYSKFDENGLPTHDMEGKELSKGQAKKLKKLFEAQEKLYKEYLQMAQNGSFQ
pEC50: 3.63

UniProt Q7Z3D6 (effect direction: destabilized)
pEC50: 2.79

MDH2 (effect direction: stabilized) (UniProt P40926)
pEC50: 2.78

SCCPDH (effect direction: stabilized) (UniProt Q8NBX0)
pEC50: 3.12

THOC1 (effect direction: stabilized) (UniProt Q96FV9)
pEC50: < 2.7

PELO (effect direction: stabilized) (UniProt Q9BRX2)
pEC50: 3.17

UniProt Q13416 (effect direction: stabilized)
pEC50: 3.4

MACROD1 (effect direction: stabilized) (UniProt Q9BQ69)
pEC50: 3.27

OPA1 (effect direction: destabilized) (UniProt O60313)
pEC50: 3.09

SMC4 (effect direction: stabilized) (UniProt Q9NTJ3)
pEC50: 3.54

MLKL (effect direction: stabilized) (UniProt Q8NB16)
pEC50: 3.44

MRTO4 (effect direction: destabilized) (UniProt Q9UKD2)
pEC50: < 2.7

CLN5 (effect direction: stabilized) (UniProt O75503)
pEC50: 3.38

UniProt Q9UBD5 (effect direction: stabilized)
pEC50: 3.47

CCNB2 (effect direction: stabilized) (UniProt O95067)
pEC50: 4.13

YARS (effect direction: stabilized) (UniProt P54577)
Chain of UniProt P54577 (P54577 whole entry): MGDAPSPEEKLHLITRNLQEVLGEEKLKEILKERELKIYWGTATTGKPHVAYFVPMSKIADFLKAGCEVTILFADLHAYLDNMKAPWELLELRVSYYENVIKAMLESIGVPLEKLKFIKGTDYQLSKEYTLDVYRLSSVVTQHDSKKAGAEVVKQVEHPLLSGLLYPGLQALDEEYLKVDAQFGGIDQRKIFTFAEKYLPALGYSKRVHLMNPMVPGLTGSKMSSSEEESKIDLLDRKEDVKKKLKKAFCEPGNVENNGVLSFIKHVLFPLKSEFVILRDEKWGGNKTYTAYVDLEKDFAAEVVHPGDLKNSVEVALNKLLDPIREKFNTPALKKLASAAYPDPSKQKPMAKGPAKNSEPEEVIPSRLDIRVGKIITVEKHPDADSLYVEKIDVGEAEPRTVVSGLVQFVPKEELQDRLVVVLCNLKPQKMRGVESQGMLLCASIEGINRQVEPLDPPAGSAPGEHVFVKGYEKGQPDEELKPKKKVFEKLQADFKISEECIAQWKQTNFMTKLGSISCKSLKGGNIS
pEC50: 3.25

UniProt Q7L9L4 (effect direction: stabilized)
Chain of UniProt Q7L9L4 (Q7L9L4 whole entry): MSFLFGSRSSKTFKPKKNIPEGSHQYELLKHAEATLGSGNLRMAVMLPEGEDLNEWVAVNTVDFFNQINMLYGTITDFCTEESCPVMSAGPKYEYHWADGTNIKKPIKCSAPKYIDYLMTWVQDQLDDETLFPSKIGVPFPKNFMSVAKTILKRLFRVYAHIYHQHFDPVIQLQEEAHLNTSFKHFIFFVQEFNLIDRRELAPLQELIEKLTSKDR
pEC50: 2.98

SLC27A4 (effect direction: stabilized) (UniProt Q6P1M0)
pEC50: 3.05

UniProt Q8N2M8 (effect direction: stabilized)
Chain of UniProt Q8N2M8 (Q8N2M8 whole entry): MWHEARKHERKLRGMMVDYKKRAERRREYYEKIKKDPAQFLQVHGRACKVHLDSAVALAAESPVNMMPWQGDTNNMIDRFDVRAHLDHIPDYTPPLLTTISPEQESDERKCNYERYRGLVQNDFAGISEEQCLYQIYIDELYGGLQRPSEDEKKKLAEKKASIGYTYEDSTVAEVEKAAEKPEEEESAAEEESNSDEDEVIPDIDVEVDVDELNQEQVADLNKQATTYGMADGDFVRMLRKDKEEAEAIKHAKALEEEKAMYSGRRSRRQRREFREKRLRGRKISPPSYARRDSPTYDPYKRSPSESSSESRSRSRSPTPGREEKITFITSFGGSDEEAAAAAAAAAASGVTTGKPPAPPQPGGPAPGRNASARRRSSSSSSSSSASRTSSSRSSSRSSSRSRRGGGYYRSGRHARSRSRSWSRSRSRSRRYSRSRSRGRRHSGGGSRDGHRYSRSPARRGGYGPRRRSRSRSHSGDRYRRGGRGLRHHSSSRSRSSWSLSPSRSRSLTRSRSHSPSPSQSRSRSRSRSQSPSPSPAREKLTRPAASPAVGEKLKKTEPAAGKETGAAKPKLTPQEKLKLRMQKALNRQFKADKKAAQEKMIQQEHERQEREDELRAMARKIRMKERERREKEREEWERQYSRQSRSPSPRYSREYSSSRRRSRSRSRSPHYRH
pEC50: < 2.7

UniProt Q92600 (effect direction: stabilized)
pEC50: 3.18

NUP188 (effect direction: stabilized) (UniProt Q5SRE5)
pEC50: < 2.7

RBMX (effect direction: destabilized) (UniProt P38159)
Chain of UniProt P38159 (P38159 whole entry): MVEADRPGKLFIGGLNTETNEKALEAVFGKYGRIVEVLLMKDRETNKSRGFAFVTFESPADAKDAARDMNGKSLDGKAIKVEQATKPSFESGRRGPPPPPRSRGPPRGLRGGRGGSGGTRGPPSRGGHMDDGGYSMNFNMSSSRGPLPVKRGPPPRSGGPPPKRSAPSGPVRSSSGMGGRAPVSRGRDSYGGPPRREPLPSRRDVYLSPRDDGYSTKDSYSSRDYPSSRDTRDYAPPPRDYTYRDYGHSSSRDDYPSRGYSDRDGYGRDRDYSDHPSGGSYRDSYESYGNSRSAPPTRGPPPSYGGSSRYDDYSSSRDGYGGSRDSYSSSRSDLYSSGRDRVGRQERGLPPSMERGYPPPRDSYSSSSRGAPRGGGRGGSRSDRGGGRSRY
pEC50: < 2.7

GRSF1 (effect direction: stabilized) (UniProt Q12849)
pEC50: 2.83

ASS1 (effect direction: stabilized) (UniProt P00966)
Chain of UniProt P00966 (P00966 whole entry): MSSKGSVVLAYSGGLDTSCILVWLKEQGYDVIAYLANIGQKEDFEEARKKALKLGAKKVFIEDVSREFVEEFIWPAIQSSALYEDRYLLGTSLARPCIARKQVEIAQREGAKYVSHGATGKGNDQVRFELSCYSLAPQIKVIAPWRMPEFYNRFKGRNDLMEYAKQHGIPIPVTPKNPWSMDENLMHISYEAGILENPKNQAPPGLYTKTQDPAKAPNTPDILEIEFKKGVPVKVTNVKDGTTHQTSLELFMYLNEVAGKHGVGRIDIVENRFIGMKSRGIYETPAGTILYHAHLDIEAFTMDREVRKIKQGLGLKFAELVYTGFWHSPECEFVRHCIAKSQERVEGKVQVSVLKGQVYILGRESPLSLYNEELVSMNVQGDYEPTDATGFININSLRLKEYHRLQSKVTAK
pEC50: 3.66

FIGNL1 (effect direction: stabilized) (UniProt Q6PIW4)
pEC50: 3.82

RIOK3 (effect direction: stabilized) (UniProt O14730)
pEC50: 3.7

EIF3L (effect direction: stabilized) (UniProt Q9Y262)
pEC50: < 2.7

BOP1 (effect direction: stabilized) (UniProt Q14137)
Chain of UniProt Q14137 (Q14137 whole entry): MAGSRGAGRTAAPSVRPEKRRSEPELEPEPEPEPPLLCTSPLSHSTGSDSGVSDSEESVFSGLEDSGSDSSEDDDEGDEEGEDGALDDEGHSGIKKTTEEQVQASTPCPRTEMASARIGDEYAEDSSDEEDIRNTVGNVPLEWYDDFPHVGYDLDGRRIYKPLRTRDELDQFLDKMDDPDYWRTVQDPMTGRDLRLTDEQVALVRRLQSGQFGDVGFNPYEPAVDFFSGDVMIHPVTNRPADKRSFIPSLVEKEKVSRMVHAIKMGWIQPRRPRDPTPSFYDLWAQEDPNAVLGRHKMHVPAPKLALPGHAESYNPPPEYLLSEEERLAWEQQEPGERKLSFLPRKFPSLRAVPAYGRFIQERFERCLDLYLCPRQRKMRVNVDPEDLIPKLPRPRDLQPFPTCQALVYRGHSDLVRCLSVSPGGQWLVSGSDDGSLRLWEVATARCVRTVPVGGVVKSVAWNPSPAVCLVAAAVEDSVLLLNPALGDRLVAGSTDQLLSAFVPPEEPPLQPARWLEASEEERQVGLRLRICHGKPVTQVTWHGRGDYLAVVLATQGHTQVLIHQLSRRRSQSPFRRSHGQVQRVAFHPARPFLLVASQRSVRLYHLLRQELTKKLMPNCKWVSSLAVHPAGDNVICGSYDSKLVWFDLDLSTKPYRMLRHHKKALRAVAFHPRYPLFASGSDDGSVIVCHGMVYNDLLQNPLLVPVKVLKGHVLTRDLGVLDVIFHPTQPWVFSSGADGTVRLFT
pEC50: < 2.7

SKIV2L (effect direction: stabilized) (UniProt Q15477)
pEC50: 2.92

UniProt Q15046 (effect direction: stabilized)
pEC50: 3.22

PGK1 (effect direction: stabilized) (UniProt P00558)
Chain of UniProt P00558 (P00558 whole entry): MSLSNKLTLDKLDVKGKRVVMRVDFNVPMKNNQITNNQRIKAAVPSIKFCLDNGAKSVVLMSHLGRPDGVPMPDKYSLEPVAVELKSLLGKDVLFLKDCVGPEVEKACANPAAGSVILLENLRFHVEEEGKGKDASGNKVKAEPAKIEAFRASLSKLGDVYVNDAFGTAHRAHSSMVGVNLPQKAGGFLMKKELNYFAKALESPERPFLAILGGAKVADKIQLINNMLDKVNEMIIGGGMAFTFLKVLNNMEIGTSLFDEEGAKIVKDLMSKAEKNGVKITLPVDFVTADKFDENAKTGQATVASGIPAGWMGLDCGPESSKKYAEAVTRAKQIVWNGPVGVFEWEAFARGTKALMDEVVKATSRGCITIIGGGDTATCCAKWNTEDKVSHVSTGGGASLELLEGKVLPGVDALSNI
pEC50: 3.75

HSP90AB1 (effect direction: stabilized) (UniProt P08238)
pEC50: < 2.7

UniProt P48729 (effect direction: stabilized)
pEC50: 3.3

ALKBH5 (effect direction: stabilized) (UniProt Q6P6C2)
pEC50: 3.65

G6PD (effect direction: stabilized) (UniProt P11413)
pEC50: < 2.7

SCPEP1 (effect direction: stabilized) (UniProt Q9HB40)
pEC50: 3.37

UniProt P62277 (effect direction: destabilized)
pEC50: 3.88

KIF5B (effect direction: stabilized) (UniProt P33176)
pEC50: 4.09

UniProt Q8NI60 (effect direction: stabilized)
pEC50: 3.73

AIP (effect direction: stabilized) (UniProt O00170)
pEC50: < 2.7

CACYBP (effect direction: stabilized) (UniProt Q9HB71)
pEC50: 2.95

CCDC86 (effect direction: stabilized) (UniProt Q9H6F5)
pEC50: < 2.7

SND1 (effect direction: stabilized) (UniProt Q7KZF4)
pEC50: 3.22

IKBKG (effect direction: stabilized) (UniProt Q9Y6K9)
pEC50: 3.42

PEF1 (effect direction: destabilized) (UniProt Q9UBV8)
pEC50: 2.86

UniProt P49591 (effect direction: stabilized)
pEC50: < 2.7

TRMU (effect direction: stabilized) (UniProt O75648)
Chain of UniProt O75648 (O75648 whole entry): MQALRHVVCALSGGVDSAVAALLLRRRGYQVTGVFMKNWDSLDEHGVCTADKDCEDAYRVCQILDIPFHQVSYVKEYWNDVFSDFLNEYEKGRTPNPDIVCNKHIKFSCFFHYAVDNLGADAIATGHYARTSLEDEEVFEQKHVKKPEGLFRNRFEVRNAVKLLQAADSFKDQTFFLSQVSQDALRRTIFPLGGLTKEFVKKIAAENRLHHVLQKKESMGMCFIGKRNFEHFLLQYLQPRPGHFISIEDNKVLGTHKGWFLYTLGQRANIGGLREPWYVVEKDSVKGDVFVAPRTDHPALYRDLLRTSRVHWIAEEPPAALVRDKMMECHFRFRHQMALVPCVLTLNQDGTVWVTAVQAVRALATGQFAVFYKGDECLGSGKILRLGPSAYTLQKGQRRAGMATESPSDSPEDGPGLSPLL
pEC50: 3.31

PUS1 (effect direction: stabilized) (UniProt Q9Y606)
Chain of UniProt Q9Y606 (Q9Y606 whole entry): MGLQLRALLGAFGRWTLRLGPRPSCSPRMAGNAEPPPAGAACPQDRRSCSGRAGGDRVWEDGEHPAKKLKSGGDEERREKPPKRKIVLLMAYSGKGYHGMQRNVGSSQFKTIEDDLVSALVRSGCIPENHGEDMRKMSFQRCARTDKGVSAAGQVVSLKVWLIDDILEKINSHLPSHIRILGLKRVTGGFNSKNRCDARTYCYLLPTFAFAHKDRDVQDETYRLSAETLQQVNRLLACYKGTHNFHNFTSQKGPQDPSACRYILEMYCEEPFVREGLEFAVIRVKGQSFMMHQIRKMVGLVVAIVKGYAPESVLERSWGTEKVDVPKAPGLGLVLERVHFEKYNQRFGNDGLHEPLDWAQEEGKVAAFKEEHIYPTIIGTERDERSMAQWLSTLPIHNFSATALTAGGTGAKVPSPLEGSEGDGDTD
pEC50: 2.99

UniProt P62308 (effect direction: destabilized)
pEC50: 2.78

MAP4K5 (effect direction: stabilized) (UniProt Q9Y4K4)
pEC50: 3.41

MSI2 (effect direction: stabilized) (UniProt Q96DH6)
pEC50: < 2.7

MRPS23 (effect direction: destabilized) (UniProt Q9Y3D9)
pEC50: 3.89

SMARCAD1 (effect direction: stabilized) (UniProt Q9H4L7)
pEC50: 3.94
